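Dose response: 5 concentrations. Exposure: 48 h. Format: 96-well plates. Endpoint: linear interpolation; highest concentration if not reached. GI50 is the concentration that inhibits growth by half.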 Active and inactive are the calls of the source. No stated cut-off is given here; in the data, active = GI50 up to about 1.1 µM and inactive = higher.
What was measured:
Test in all cases: NCI anticancer screen, dose series, 48 h
[1] = system: NCI-H226
[2] = system: HCT-15
[3] = system: HCT-116
[4] = system: EKVX
[5] = system: RXF 393
[6] = system: UACC-62
[7] = system: HT-29
[8] = system: LOX IMVI
[9] = system: K562
[10] = system: SN12C
[11] = system: BT-549
[12] = system: HOP-92
[13] = system: OVCAR-5
[14] = system: RPMI-8226
[15] = system: SK-OV-3
[16] = system: OVCAR-3
[17] = system: NCI-H522
[18] = system: Hs-578T
[19] = system: KM12
[20] = system: MDA-MB-231

| Compound | GI50 [1] | GI50 [2] [µM] | GI50 [3] | GI50 [4] | GI50 [5] | GI50 [6] | GI50 [7] | GI50 [8] | GI50 [9] | GI50 [10] | GI50 [11] | GI50 [12] | GI50 [13] | GI50 [14] | GI50 [15] | GI50 [16] | GI50 [17] | GI50 [18] | GI50 [19] | GI50 [20] |
| --- | --- | --- | --- | --- | --- | --- | --- | --- | --- | --- | --- | --- | --- | --- | --- | --- | --- | --- | --- | --- |
| O=S(=O)(Nc1nccs1)c1ccc([As](=O)(O)O)cc1 | > 100 µM (inactive) | > 100 | > 100 µM (inactive) | > 100 µM (inactive) | > 100 µM (inactive) | > 100 µM (inactive) | > 100 µM (inactive) | > 100 µM (inactive) | > 100 µM (inactive) | > 100 µM (inactive) | > 100 µM (inactive) | > 100 µM (inactive) | > 100 µM (inactive) | > 100 µM (inactive) | > 100 µM (inactive) | > 100 µM (inactive) | > 100 µM (inactive) | > 100 µM (inactive) | > 100 µM (inactive) | > 100 µM (inactive) |
| CC(C)c1ccc2c(c1)CCC1C(C)(CN)CCCC21C (stereo not given) | 1.91 µM (inactive) | 1.54 | 1.59 µM (inactive) | 1.86 µM (inactive) | 1.56 µM (inactive) | 1.77 µM (inactive) | 0.914 µM (active) | 1.43 µM (inactive) | 0.551 µM (active) | 1.71 µM (inactive) | 1.88 µM (inactive) | 1.55 µM (inactive) | 1.76 µM (inactive) | 0.653 µM (active) | 2.11 µM (inactive) | 1.7 µM (inactive) | 1.79 µM (inactive) | 1.63 µM (inactive) | 1.69 µM (inactive) | 1.42 µM (inactive) |
| CC(C)(C)OC(=O)NCC(c1c[nH]c2cc(Br)ccc12)c1c[nH]c2cc(Br)ccc12 | 15.4 µM (inactive) | 15.1 | 17 µM (inactive) | 16.2 µM (inactive) | 17.6 µM (inactive) | 16 µM (inactive) | 16.9 µM (inactive) | 17.5 µM (inactive) | 40.1 µM (inactive) | 18.5 µM (inactive) | 16.1 µM (inactive) | 14.9 µM (inactive) | 15.5 µM (inactive) | 32.7 µM (inactive) | 15.8 µM (inactive) | 15.7 µM (inactive) | 17.3 µM (inactive) | 19.8 µM (inactive) | 18.3 µM (inactive) | 18 µM (inactive) |
| CC1CNC(c2ccc(-c3nc(-c4ccc(C5=NC(C)CN5)cc4)nc(N(C)C)n3)cc2)=N1 (stereo not given) | 2.02 µM (inactive) | 16.6 | 0.964 µM (active) | 2.54 µM (inactive) | 3.22 µM (inactive) | 1.73 µM (inactive) | 1.79 µM (inactive) | 1.41 µM (inactive) | 1.41 µM (inactive) | 1.47 µM (inactive) | 3.74 µM (inactive) | 3.14 µM (inactive) | 3.24 µM (inactive) | 3.78 µM (inactive) | 1.91 µM (inactive) | 1.79 µM (inactive) | 1.24 µM (inactive) | 3.21 µM (inactive) | 2.23 µM (inactive) | 1.31 µM (inactive) |
| CC(Oc1ccc(Cl)cc1Cl)C(=O)NN1C(=O)CSC1c1ccc(Cl)cc1 (stereo not given) | 17.6 µM (inactive) | > 100 | 57.9 µM (inactive) | 80 µM (inactive) | 27 µM (inactive) | 43.5 µM (inactive) | 70.1 µM (inactive) | 56 µM (inactive) | 44.1 µM (inactive) | 20 µM (inactive) | 43.7 µM (inactive) | 21 µM (inactive) | > 100 µM (inactive) | 35.7 µM (inactive) | 54.3 µM (inactive) | 54.5 µM (inactive) | 93.1 µM (inactive) | 64.7 µM (inactive) | 86.3 µM (inactive) | 27.4 µM (inactive) |
| COc1ccccc1/C=C1\CCC(CN(C)C)C1=O (stereo not given) | 11.4 µM (inactive) | 2.75 | 3.48 µM (inactive) | 15 µM (inactive) | 3.84 µM (inactive) | 4.21 µM (inactive) | 4.89 µM (inactive) | 2.14 µM (inactive) | 2.28 µM (inactive) | 2.48 µM (inactive) | 13.3 µM (inactive) | 2.99 µM (inactive) | 12.7 µM (inactive) | 2.05 µM (inactive) | 19.4 µM (inactive) | 5.38 µM (inactive) | 1.85 µM (inactive) | 9.86 µM (inactive) | 3.75 µM (inactive) | 2.43 µM (inactive) |
| CC(=O)OC1OC(c2ccoc2)C[C@@]12C1CCC3O[C@]3(C)[C@]1(C)C[C@H](OC(C)=O)[C@H]2C (stereo not given in full) | > 75 µM (inactive) | > 75 | > 75 µM (inactive) | > 75 µM (inactive) | > 75 µM (inactive) | 51.3 µM (inactive) | > 75 µM (inactive) | > 75 µM (inactive) | > 75 µM (inactive) | > 75 µM (inactive) | > 75 µM (inactive) | 72.8 µM (inactive) | > 75 µM (inactive) | 44 µM (inactive) | > 75 µM (inactive) | > 75 µM (inactive) | > 75 µM (inactive) | > 75 µM (inactive) | > 75 µM (inactive) | 45.9 µM (inactive) |
